Key:
TP53-KO hESCs [1] = test: Cell viability assay (resazurin), TP53 knockout human ES cells; type: cell-based; settings: for sensitivity/resistance of TP53-KO hESCs (cell viability): 7-point two-fold dilution starting with 10 μM
Protocol: (§1) Human H9 embryonic stem cells (ESCs) (Lot No.: WIC-WA09-MB-001, WiCell, Wisconsin) and derivatives were maintained at 37° C., 5% CO2 in chemical-defined medium TeSR-E8 medium (Stemcell Tech.) with 100 U/ml penicillin & 100 μg/ml streptomycin (Gibco) on Matrigel-coated (# CB40230A, Corning) tissue culture vessels. Authentication of H9 ESCs were performed by WiCell. ESCs were passaged every 4 to 6 days to maintain sub-confluence using 0.5 mM EDTA as described previously. Human colon cancer RKO cells (kindly given by Dr. Bert Vogelstein) and its derivatives were maintained at 37° C., 5% CO2 in McCoy's 5A media (Fisher) supplemented with 10% FBS and 100 U/ml penicillin & 100 μg/ml streptomycin (Gibco). RKO cells were passaged every 3 to 4 days to maintain sub-confluence (authentication of RKO cell line was performed by JHU-GRCF Biorepository & Cell Center). Cells were screened for mycoplasma before experiments using a MycoAlert™ Mycoplasma Detection Kit (Lonza).
TP53 knockout hESCs and RKO cells were generated using CRISPR/Cas9 as described previously with minor modifications. Briefly, human codon-optimized Streptococcus pyogenes wild type Cas9 (Cas9-2A-GFP) was obtained from Addgene (#44719). Chimeric guide RNA expression cassettes with different small guide RNA, TP53_Up_sgRNA: 5′-[…]-3′ (SEQ ID NO: 1) and TP53_Down_sgRNA: 5′-[…]-3′ (SEQ ID NO: 2) were ordered as gBlock. These gBlocks were amplified by PCR using primers: gBlock_Amplifying_F: 5′-[…]-3′ (SEQ ID NO: 3) and gBlock_Amplifying_R: 5′-[…]-3′ (SEQ ID NO: 4). The PCR product was purified by Agencourt Ampure XP PCR Purification beads according to manufacturer's protocol (Beckman Coulter). 1.5 μg of Cas9 plasmid and 0.5 μg of each gRNAgBlock were co-transfected into hESCs via Lipofectamine™ 3000 (Thermo Fisher Scientific). […] For TP53-KO RKO cells, single clones were picked up and validated by PCR and Western blotting.
(§2) NCI Approved Oncology Drug Set IV containing 127 FDA-approved anticancer drugs was obtained from the NCI under a material transfer agreement. TP53 knockout or wild-type human ES cells were seeded in 96-well microplates in E8 medium, with 6,000 cells per well that would reach about 85% confluent at the end of the assay. Human ES cells were plated one day before treatment with a 7-point two-fold dilution series (starting with 10 μM) of each compound or solvent (dimethyl sulfoxide, DMSO or Dimethylformamide, DMF) control. After 72 hours incubation, cells were stained with 35 μM resazurin (Sigma), then quantification of fluorescent signal intensity was performed on Thermo Fluorskan™ Ascent plate reader at excitation and emission wavelengths of 544/590 nm. Data were normalized to the solvent control (DMSO or DMF) group. The area under a curve (AUC) was calculated using auc function (flux package) in R. The two-side t-test was performed with tlest function in R. The hierarchical clustering analysis of drugs AUC pattern in different samples was carried out using heatmap.2 function (gplots package) in R (All R code available). Viability response curves of Cisplatin and Paclitaxel on TP53-KO hESCs or RKO cells were generated using drc package (Analysis of Dose-Response Curves) in R.

TP53-WT hESCs [2] = test: Cell viability assay (resazurin), TP53 wild-type human ES cells; type: cell-based; settings: for sensitivity of TP53-WT hESCs (cell viability): all tested concentrations
Protocol: as §1, §2

TP53-KO RKO cells [3] = test: Cisplatin viability response on TP53 knockout RKO colon cancer cells; type: cell-based, human
Protocol: as §1, with “RKO cells were passaged every 3 to 4 days to maintain sub-confluence (authentication of RKO cell line was performed by JHU-GRCF Biorepository & Cell Center). Cells were screened for mycoplasma before experiments using a MycoAlert™ Mycoplasma Detection Kit (Lonza).” left out
NCI Approved Oncology Drug Set IV containing 127 FDA-approved anticancer drugs was obtained from the NCI under a material transfer agreement. […] After 72 hours incubation, cells were stained with 35 μM resazurin (Sigma), then quantification of fluorescent signal intensity was performed on Thermo Fluorskan™ Ascent plate reader at excitation and emission wavelengths of 544/590 nm. […] The area under a curve (AUC) was calculated using auc function (flux package) in R. The two-side t-test was performed with tlest function in R. The hierarchical clustering analysis of drugs AUC pattern in different samples was carried out using heatmap.2 function (gplots package) in R (All R code available). […]

TP53-WT hESCs [4] = test: Cell viability assay (resazurin), TP53 wild-type human ES cells; type: cell-based; settings: 200 nM
TP53-KO hESCs [5] = test: Paclitaxel and Cisplatin drug synergy experiment on TP53-KO hESCs; type: cell-based, human; settings: low concentration Paclitaxel plus Cisplatin matrix, 72 hours, ZIP synergy model
Protocol: (§3) A Paclitaxel and Cisplatin drug matrix (12×8) in a 96-well plate was made for drug synergy experiment. Paclitaxel on row was an 11-point two-fold dilution series with starting concentration of 0.0016 μM, and Cisplatin on column was a 7-point two-fold dilution series with starting concentration of 2 μM, 5000 TP53-KO hESCs per well or 2000 TP53-KO RKO cells per well were plated on three 96-well plates one day before treatment with Paclitaxel and Cisplatin drug matrix. After 72 hours incubation for TP53-KO hESCs and 96 hours incubation for TP53-KO RKO cells, cells were stained with 35 μM resazurin (Sigma), then quantification of fluorescent signal intensity was performed on Thermo Fluorskan™ Ascent plate reader at excitation and emission wavelengths of 544/590 nm. The drug synergy scores were evaluated using ZIP model (Zero Interaction Potency model) in synergyfinder package.

[6] = tested on: ZNF207/BuGZ knockout TP53-KO hESCs; test: Validation of ZNF207/BuGZ knockout in Cas9-expressing TP53-KO hESCs treated with Cisplatin (qPCR of knockout locus); type: cell-based, human
Protocol: Human TP53 knockout embryonic stem cells were infected at low MOI by viruses produced using pCLIP-Cas9-Nuclease-EFS-Blast (TransOMIC) and selected using blastcidin (10 μg/ml). The stable Cas9-expressing TP53-KO hESCs were infected with viruses with two sgRNAs against gene ZNF207/BuGZ (# TEDH-1090944, TransOMIC) or control gene OR1C1 (# TEDH-1055091, TransOMIC). These two sgRNAs could induce fragment deletion. We treated these cells with either 200 nM Cisplatin or vehicle DMF. We used realtime quantitative PCR to quantify the ZNF207 knockout locus, using gRNA flanking primers that only amplify when the intervening sequence has been deleted.
The relative percentage of ZNF207 or OR1C1 knockout cell number was defined as:
2^−ΔCT(Gene−LINE)/2^−ΔCT(Gene−LINE) at Day0.

TP53-KO RKO cells [7] = test: Paclitaxel and Cisplatin drug synergy experiment on TP53-KO RKO cells; type: cell-based, human; settings: Paclitaxel plus Cisplatin matrix, 96 hours, two TP53-KO clones, ZIP synergy model
Protocol: as §3

[8] = 72 hours, resazurin, low concentrations

`CCCCCOC(=O)Nc1nc(=O)n([C@@H]2O[C@H](C)[C@@H](O)[C@H]2O)cc1F` [Capecitabine] was tested, and the “sensitivity/resistance of TP53-KO hESCs (cell viability)” value (“sensitivity/resistance of TP53-KO hESCs” below) (TP53-KO hESCs [1]; 72 hours, resazurin) was “resistant” and the “sensitivity of TP53-WT hESCs (cell viability)” value (TP53-WT hESCs [2]; 72 hours, resazurin) was “resistant”.

For `N.N.O=C([O-])C1(C(=O)[O-])CCC1.[Pt+2]` [Carboplatin], the “sensitivity/resistance of TP53-KO hESCs” value (TP53-KO hESCs [1]; 72 hours, resazurin) was “resistant” and the “sensitivity of TP53-WT hESCs at low concentration (cell viability)” value (TP53-WT hESCs [2]; 72 hours, resazurin) was “very sensitive”.

For `N.N.[Cl][Pt][Cl]` [Cisplatin], the “resistance of TP53-KO hESCs at the optimal concentration” value (TP53-KO hESCs [1]; 200 nM) was “very resistant”, the “sensitivity/resistance of TP53-KO hESCs” value (TP53-KO hESCs [1]; 72 hours, resazurin) was “resistant” and the “resistance of TP53-KO RKO cells compared to TP53-WT RKO cells” value (TP53-KO RKO cells [3]) was “resistant”. For the same compound, the “sensitivity of TP53-WT hESCs at the optimal concentration” value (TP53-WT hESCs [4]) was “very sensitive”, the “inhibition of Cisplatin on TP53-KO hESCs in combination with Paclitaxel” value (TP53-KO hESCs [5]) was “increased” and the “sensitivity of TP53-WT hESCs at low concentration (cell viability)” value (TP53-WT hESCs [2]; 72 hours, resazurin) was “very sensitive”. For the same compound, the “sensitivity of ZNF207/BuGZ knockout TP53-KO hESCs” value ([6]; 200 nM vs vehicle DMF, two more TP53-KO hESC lines) was “more sensitive”, the “depletion of ZNF207/BuGZ knockout cells versus DMF vehicle control” value ([6]; 200 nM, ten days, qPCR at day 6 and 10) was “depleted faster” and the “inhibition of Cisplatin on TP53-KO RKO cells in combination with Paclitaxel” value (TP53-KO RKO cells [7]) was “increased greatly”.

`CC(=O)O[C@@]12CO[C@@H]1C[C@H](O)[C@@]1(C)C(=O)[C@H](O)C3=C(C)[C@@H](OC(=O)[C@H](O)[C@@H](NC(=O)OC(C)(C)C)c4ccccc4)C[C@@](O)([C@@H](OC(=O)c4ccccc4)[C@H]21)C3(C)C` [Docetaxel] was tested, and the “sensitivity/resistance of TP53-KO hESCs” value (TP53-KO hESCs [1]; 72 hours, resazurin) was “sensitive” and the “sensitivity of TP53-WT hESCs (cell viability)” value (TP53-WT hESCs [2]; 72 hours, resazurin) was “sensitive”.

With `O=c1[nH]cc(F)c(=O)[nH]1` [Fluorouracil] the “resistance of TP53-KO hESCs at low concentrations” value (TP53-KO hESCs [1]; [8]) was “resistant”, the “sensitivity of TP53-WT hESCs at high concentrations” value (TP53-WT hESCs [2]; 72 hours, resazurin, high concentrations) was “sensitive” and the “resistance of TP53-WT hESCs at low concentrations” value (TP53-WT hESCs [2]; [8]) was “resistant”.

In the case of `CCc1c2c(nc3ccc(OC(=O)N4CCC(N5CCCCC5)CC4)cc13)-c1cc3c(c(=O)n1C2)COC(=O)[C@]3(O)CC` [Irinotecan], the “sensitivity/resistance of TP53-KO hESCs” value (TP53-KO hESCs [1]; 72 hours, resazurin) is reported as “resistant” and the “sensitivity of TP53-WT hESCs at low concentration (0.16 μM)” value (TP53-WT hESCs [2]; 72 hours, resazurin) is reported as “very sensitive”.

For `COc1ccc(C2=N[C@@H](c3ccc(Cl)cc3)[C@@H](c3ccc(Cl)cc3)N2C(=O)N2CCNC(=O)C2)c(OC(C)C)c1` [Nutlin-3a], the “growth inhibitory effect on TP53-WT hESCs” value (TP53-WT hESCs [2]; very low concentrations) was “severely growth arrested”.

For `O=C(c1cc(Cc2n[nH]c(=O)c3ccccc23)ccc1F)N1CCN(C(=O)C2CC2)CC1` [Olaparib], the “sensitivity/resistance of TP53-KO hESCs” value (TP53-KO hESCs [1]; 72 hours, resazurin) was “resistant” and the “sensitivity of TP53-WT hESCs at low concentration (cell viability)” value (TP53-WT hESCs [2]; 72 hours, resazurin) was “very sensitive”.

In the case of `O=C1[O][Pt]2([NH][C@@H]3CCCC[C@H]3[NH]2)[O]C1=O` [Oxaliplatin], the “sensitivity/resistance of TP53-KO hESCs” value (TP53-KO hESCs [1]; 72 hours, resazurin) is reported as “resistant” and the “sensitivity of TP53-WT hESCs at low concentration (0.16 μM)” value (TP53-WT hESCs [2]; 72 hours, resazurin) is reported as “very sensitive”.

In the case of `CC(=O)O[C@H]1C(=O)[C@@]2(C)[C@H]([C@H](OC(=O)c3ccccc3)[C@]3(O)C[C@H](OC(=O)[C@H](O)[C@@H](NC(=O)c4ccccc4)c4ccccc4)C(C)=C1C3(C)C)[C@]1(OC(C)=O)CO[C@@H]1C[C@@H]2O` [Paclitaxel], the “sensitivity/resistance of TP53-KO hESCs” value (TP53-KO hESCs [1]; 72 hours, resazurin) is reported as “sensitive” and the “sensitivity of TP53-WT hESCs (cell viability)” value (TP53-WT hESCs [2]; 72 hours, resazurin) is reported as “sensitive”.

Reference: patent US20200299777A1, “Methods for Resensitizing p53-Null Cells to Cancer Chemotherapy” (UNIVERSITY OF SOUTH CAROLINA, priority 2019, published 2020)
